Results published in patent US20220409696A1, “Heparin-Associated Polypeptides and Uses Thereof” (Juvena Therapeutics, Inc., priority 2021, published 2022).

Columns and labels:
human myoblast cells [1] = assay: Differentiation of human myoblast cells, MyHC immunostaining; format: cell-based; conditions: for % MyHC: 96 hours with daily media change; for percentage area of MyHC compared with vehicle control: 96 hours, One-Way ANOVA Tukey
Protocol: (§1) FIG. 1A: The suspension CHO cells were transiently transfected with the IGF2-hFcm encoding plasmid. IGF2-hFcm was affinity-purified by Protein A membrane column. The purified IGF2-hFcm was added into the culture of human myoblast cells for 96 hours. Myosin heavy chain (MyHC) was immunostained and imaged by a fluorescence microscope.
as §1, with “1B:” for “1A:”, “IGF2-LhFc4” for “IGF2-hFcm”, “hours with daily media change.” for “hours.”
as §1, with “2A:” for “1A:”, “HSA-L-IGF2R61A” for “IGF2-hFcm”, “hours with daily media change.” for “hours.”
Suspension CHO cells were transiently transfected with the IGF2-hFcm encoding plasmid. After four days, the culture supernatants were collected and IGF2-hFcm was affinity-purified by Protein A membrane column. The purified IGF2-hFcm was added into the culture of human myoblast cells. Myosin heavy chain (MyHC) was immunostained and imaged by a fluorescent microscope. After quantification of the stained MyHC, the percentage area of MyHC was calculated as the percent of pixels within the field that are illuminated above background in the stained channel. […] Significance was determined by a p-value less than 0.05 by the one-way ANOVA Tukey Honest Significant Difference test.

[2] = Pharmacokinetics after intravenous injection in mice; format: in vivo
Protocol: Murine pharmacokinetics (PK) represents the absorption, distribution, metabolism, and elimination of drugs from the body. The pharmacokinetic profile of the therapeutic polypeptides were determined in mice (10-12 weeks old). Mice were fed ad libitum and housed under controlled conditions of lighting (12-hour light/12-hour dark) and temperature (22-24° C.). Mice were allowed to acclimate for 3 days prior to the initiation of the experiment. Intravenous (IV) injection in 10-12 weeks old mice. Engineered mitogenic polypeptides concentrations in the samples were measured by ELISA. Various pharmacokinetics will be calculated as well as the absorption/elimination dynamics following different routes of administration.

rhIGFBP3 = rhIGFBP3 (Homo sapiens, UniProt P17936); assay: Interaction with rhIGFBP3 by size exclusion chromatography (HPLC); format: binding; conditions: 1:1 stoichiometric mixture
Source text: In physiological conditions IGF2 will bind IGF binding proteins (IGFBPs). The purpose of this study was to determine if mutant sequences of IGF2 interact with IGFBPs. Retention time across a size exclusions chromatography column is proportional to the size of the molecule. Thus molecular interactions can be ascertained by a corresponding change in retention time on a size exclusions chromatography column.

[3] = test system: healthy human muscle precursors from person; assay: In vitro myogenesis assay, healthy human muscle precursors; format: cell-based
Protocol: (§2) Human muscle progenitor cells (early passage myoblasts) were cultured and expanded in growth medium: Ham's F-10 (Gibco), 20% Bovine Growth Serum (Hyclone), 5 ng/mL FGF2 and 1% penicillin-streptomycin on Matrigel coated plates (1:300 matrigel: PBS), at 37° C. and 5% CO2. For experimental conditions, cells were plated at 40,000 cells/well on Matrigel coated 8-well chamber slides in 250-500 μL medium per well (1:100 matrigel: PBS) in human fusion medium: DMEM (Gibco)+2% horse serum (Hyclone). One hour after plating, human myoblasts were treated with 50% respective media: […] were cultured for 24 hours in the above conditions, at 37° C. in 10% CO2 incubator. BrdU (300 μM) in DMSO was added for 2 hours prior to fixation with cold 70% ethanol and stored at 4° C. until staining.
(§3) Following permeabilization in PBS+0.25% Triton X-100, antigen retrieval was performed. Primary staining was performed with primary antibodies including: a species-specific monoclonal antibody for mouse anti-embryonic Myosin Heavy Chain (eMyHC, hybridoma clone 1.652, Developmental Studies Hybridoma Bank) and Rat-anti-BrdU (Abcam Inc. ab6326). […]

[4] = test system: human DM1 muscle precursors from person; assay: In vitro myogenesis assay, human DM1 muscle precursors; format: cell-based; conditions: equimolar concentrations across a range of concentrations
Protocol: as §2, §3

[5] = Backbone cleavage on expression from CHO cells (reducing SDS-PAGE, Western blot)
Protocol: The amino acid backbone of IGF2 is cleaved when expressed from Chinese Hamster Ovary (CHO) cells (FIG. 13A) as visualized on a reducing SDS-PAGE and Western blot (FIG. 13B). The CHO cells were grown in a 37° C. incubator with a humidified atmosphere of 8% CO2 on an orbital shaker platform with a shaking speed 125 rpm to reach 4E6 cells/mL, followed by transferring the calculated volume of cells to fresh, pre-warmed ExpiCHO™ Expression Medium in a shake flask. Incubated flasks in a 37° C. incubator with a humidified atmosphere of 8% CO2 shook on an orbital shaker platform until cultures reached a density of 4×106-6×10^6 viable cells/mL. After mixing each plasmid with 100 ul SFM in a microtube; ExpiFectamine (8 ul×10.5=84 ul) with OptiPro medium (92 ul×10.5=966 ul) in a microtube; adding 100 ul into the plasmid tube and mix by pipetting; After 5 min, add 200 ul into each well and swirl to mix. mix enhancer (15×10.2=153 ul) with feed (600×10.2=6.12 ml), add 615 ul into each well. Culture supernatant collected at intervals was spun down at low speed and high speed, then frozen at −80 deg. Aliquots were analyzed for protein concentration by nanodrop, and then an equivalent amount loaded onto 4-12% SDS-PAGE gels for molecular weight distribution analysis. […]

Mouse myoblasts = assay: Mouse myoblast fusion index with sodium butyrate; format: cell-based; conditions: 48 h
Protocol: Mouse myoblasts were treated with PBS or sodium butyrate at concentrations 0.1 nM, 1 nM, and 10 nM. Myoblasts were cultured for 48 hours, with fresh media added every 24 hours. Cells were pulsed for 2-5 hours with EdU (30 uM), ethanol fixed, stained with Hoescht 3342, immunostained for proliferation—as measured by the percent of cells staining positive for EdU (% EdU)-, and immunostained for differentiation—as measured by the increase in cellular area staining positive for embryonic myosin heavy chain (% eMyHC) relative to the negative controls, which received media and vehicle only. […] Significance was determined by a p-value less than 0.05 by the one-way ANOVA Tukey Honest Significant Difference test.
FIG. 3A: Bar graph of fusion index in response to sodium butyrate (NaBut) compared to vehicle. Myoblast were cultured 48 h in the presence of NaBut at indicated dose. Fresh media and NaBut were added every 24 h. Mean∓S.D. Table with quantitation of fusion index and p-values also shown. (*p<0.05 by Student's Two-tailed T-test, n=3−5)

human myoblast cells [6] = assay: Human myoblast differentiation (% eMyHC area), IGF2 and/or sodium butyrate; format: cell-based
Protocol: Human myoblast cells were treated with either PBS (vehicle), IGF2 (15 ng/mL), sodium butyrate, or IGF2 and sodium butyrate. Fresh media was added every 24 hours. After 96 hours, cells were pulsed for 2-5 hours with EdU (30 uM), ethanol fixed, stained with Hoescht 3342, immunostained for proliferation—as measured by the percent of cells staining positive for EdU (% EdU)-, and immunostained for differentiation—as measured by the increase in cellular area staining positive for embryonic myosin heavy chain (% eMyHC) relative to the negative controls, which received media and vehicle only. The total area of eMyHc positive cells was analyzed, and treated cells were compared to cells treated with the vehicle alone. […] Significance was determined by a p-value less than 0.05 by the one-way ANOVA Tukey Honest Significant Difference test.
FIG. 3C Bar graph quantitation of % Area eMyHC+ human myoblast in response to indicated treatment compared to IGF2 (15 ng/mL). Myoblast were cultured 96 h in the presence of IGF2 at indicated dose. Fresh media and IGF2 was added every 24 h.
Human myoblast cells were treated with either PBS (vehicle), IGF2 (15 ng/mL), sodium butyrate, or IGF2 and sodium butyrate. Fresh media was added every 24 hours. After 48 hours, cells were pulsed for 2-5 hours with EdU (30 uM), ethanol fixed, stained with Hoescht 3342, immunostained for proliferation […] as measured by the percent of cells staining positive for EdU (% EdU)-, and immunostained for differentiation—as measured by the increase in cellular area staining positive for embryonic myosin heavy chain (% eMyHC) relative to the negative controls, which received media and vehicle only.
Significance was determined by a p-value less than 0.05 by the one-way ANOVA Tukey Honest Significant Difference test.

DM1 human myoblast = assay: Gene expression fold change in DM1 human myoblast; format: cell-based; conditions: 48 h; BMP7 50 ng/mL, Butyrate 100 nM, IGF2 200 ng/mL
Protocol: Myoblasts were cultured 48 h in the presence of factors (BMP7 50 ng/mL, Butyrate 100 nM, IGF2 200 ng/mL).
Myoblasts were cultured 96 h in the presence of factors (IGF2 200 ng/mL). […] Myoblasts were cultured 48 h in the presence of factors (IGF2 200 ng/mL).
RNA was isolated from each well (RNeasy Mini Kit, Qiagen) and cDNA was obtained by reverse-transcription (High Capacity Reverse Transcription Kit, Thermo Fisher Scientific). Real-time quantitative PCR was performed using QuantStudio3 (Thermo Fisher).
IGF2 was tested individually for its ability to promote proliferation and/or fusion of human muscle progenitor cells from an individual with myotonic dystrophy type 1 (hMD)—a muscular dystrophy caused by mutations in the DMPK1 gene. The effect of IGF2 on myogenic activity was assayed in biological triplicate across a range of concentrations centered around expected physiological levels by adding each factor to hMD myoblasts for 72 hours with daily media changes (DMEM+2% horse serum) and a second pulse of factors at the first media change. After 72 or 96 hours, cells were pulsed for 2-5 hours with EdU (30 uM), ethanol fixed, stained with Hoescht 3342, immunostained for proliferation—as measured by the percent of cells staining positive for EdU (% EdU)-, and immunostained for differentiation—as measured by the increase in cellular area staining positive for embryonic myosin heavy chain (% eMyHC) relative to the negative controls, which received media and vehicle only. Wells were imaged on a Keyence BZ-100 at 4×, the images quantified in Cell Profiler, and the statistics were computed in R. Additionally, RNA was extracted from myoblast and select transcript abundances quantified by qPCR.

Sequence of rhIGFBP3 (P17936 28-291): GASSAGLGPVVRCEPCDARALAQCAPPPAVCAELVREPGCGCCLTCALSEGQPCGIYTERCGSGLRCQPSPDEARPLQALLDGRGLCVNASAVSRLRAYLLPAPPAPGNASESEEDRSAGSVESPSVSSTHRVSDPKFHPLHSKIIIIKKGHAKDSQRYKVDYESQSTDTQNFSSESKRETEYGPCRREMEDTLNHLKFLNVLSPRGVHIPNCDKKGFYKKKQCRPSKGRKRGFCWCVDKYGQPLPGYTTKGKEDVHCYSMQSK

IGF2-hFc4: Human IGF2-hFc4, SEQ ID NO 39
% MyHC (human myoblast cells [1]; FIG. 1B, Example 3): 6.901%

HSA-IGF2R61A: His tagged HSA fusion IGF2 R61A mutant with a long linker, SEQ ID NO: 34
percentage area of MyHC compared with vehicle control (human myoblast cells [1]): significantly higher | % MyHC (human myoblast cells [1]; FIG. 2A, Example 4): 6.914% | serum half-life compared to the natural sequence of IGF2 ([2]; mice): significantly improved | Half-life ([2]; mice 10-12 weeks old, dose 10 mg/kg (HSA-IGF2R61A), 600 ug/kg (IGF2), Non-Compartment Analysis): 20.81 h | interaction with rhIGFBP3 (mass shift in size exclusion chromatography) (rhIGFBP3): preserved affinity | myogenic activity relative to IGF2 ([3]; equimolar concentrations across a range of concentrations): equal activity | myogenic activity relative to HSA-IGF2 ([3]; equimolar concentrations, before or after size exclusion purification via HPLC): equal or increased activity | myogenic activity relative to IGF2 [4]: equal activity

IGF2-LhFc4: Human IGF2-linker3-hFc4 (human IgG4 Fc with S228P), SEQ ID NO 38
percentage area of MyHC compared with vehicle control (human myoblast cells [1]): significantly higher | % MyHC (human myoblast cells [1]; FIG. 1B, Example 3): 6.237%

HSA-IGF2: His tagged HSA fusion IGF2 with a long linker, SEQ ID NO 33
% MyHC (human myoblast cells [1]; FIG. 2A, Example 4): 7.079% | cleavage of the amino acid backbone when expressed from CHO cells [5]: cleaved

hFc4L-IGF2: hFc4-linker3-human IGF2, SEQ ID NO 40
% MyHC (human myoblast cells [1]; FIG. 1B, Example 3): 5.820%

CCCC(=O)[O-].[Na+] [NaBut, sodium butyrate]
Fusion Index (nuclei/myotube) (Mouse myoblasts; NaBut 0.1 nM): 8.44 nuclei/myotube | Fusion Index (nuclei/myotube) (Mouse myoblasts; NaBut 1 nM): 31.60 nuclei/myotube | Fusion Index (nuclei/myotube) (Mouse myoblasts; NaBut 1 nM, listed as sodium butyrate): increased rates of fusion | Fusion Index (nuclei/myotube) (Mouse myoblasts; NaBut 10 nM): 14.00 nuclei/myotube | % eMyHC (human myoblast cells [6]; NaBut 1 nM, 96 h (FIG. 3B)): 2.321% | % eMyHC (human myoblast cells [6]; NaBut 1 nM, after 48 hours (FIG. 4A)): 2.321% | % eMyHC (human myoblast cells [6]; NaBut 10 nM, 96 h (FIG. 3B)): 6.199% | % eMyHC (human myoblast cells [6]; NaBut 10 nM, after 48 hours (FIG. 4A)): 6.199% | % eMyHC (human myoblast cells [6]; NaBut 100 nM, 96 h (FIG. 3B)): 8.341% | % eMyHC (human myoblast cells [6]; NaBut 100 nM, after 48 hours (FIG. 4A)): 8.341% | MYF5 myogenic gene expression fold change compared to FM (vehicle) (DM1 human myoblast): 1.128 | MYODI myogenic gene expression fold change compared to FM (vehicle) (DM1 human myoblast): 1.095 | MYOG myogenic gene expression fold change compared to FM (vehicle) (DM1 human myoblast): 1.020
